Each structure is given as a SMILES string.

One may read the IC50 as the midpoint of a concentration-inhibition curve.

This test concerns the target T1, P2Y12 receptor (Homo sapiens, UniProt Q9H244).
T1 construct: expressed in transfected cells; host or cells: CHO cells (membranes)
The test is described as follows: Functional inhibition of 2-Me-S-ADP induced P2Y12 signalling (35S-GTPγS, cell membranes). Format: biochemical. Particulars: membranes from P2Y12 transfected CHO-cells, EC80 of agonist 2-methyl-thio-adenosine diphosphate, 30° C., 45 min. As for the experimental part: Functional inhibition of the P2Y12 receptor can be measured by in vitro assays using cell membranes from P2Y12 transfected CHO-cells, the methodology is indicated below.
Functional inhibition of 2-Me-S-ADP induced P2Y12 signalling: 5 μg of membranes were diluted in 200 μl of 200 mM NaCl, 1 mM MgCl2, 50 mM HEPES (pH 7.4), 0.01% BSA, 30 μg/ml saponin and 10 μM GDP. To this was added an EC80 concentration of agonist (2-methyl-thio-adenosine diphosphate), the required concentration of test compound and 0.1 μCi ^35S-GTPγS. The reaction was allowed to proceed at 30° C. for 45 min. Samples were then transferred on to GF/B filters using a cell harvester and washed with wash buffer (50 mM Tris (pH 7.4), 5 mM MgCl2, 50 mM NaCl). Filters were then covered with scintillant and counted for the amount of ^35S-GTPγS retained by the filter. Maximum activity was that determined in the presence of the agonist and minimum activity in the absence of the agonist following subtraction of the value determined for non-specific activity. The effect of compounds at various concentrations was plotted according to the equation y=A+((B−A)/(1+((C/x)ˆD))) and IC50 estimated where
A is the bottom plateau of the curve i.e. the final minimum y value
B is the top of the plateau of the curve i.e. the final maximum y value
C is the x value at the middle of the curve. This represents the log EC50 value when A+B=100 […]
(In general: GTPγS resists hydrolysis and so accumulates on activated G proteins.)

T1 sequence (Q9H244 whole entry): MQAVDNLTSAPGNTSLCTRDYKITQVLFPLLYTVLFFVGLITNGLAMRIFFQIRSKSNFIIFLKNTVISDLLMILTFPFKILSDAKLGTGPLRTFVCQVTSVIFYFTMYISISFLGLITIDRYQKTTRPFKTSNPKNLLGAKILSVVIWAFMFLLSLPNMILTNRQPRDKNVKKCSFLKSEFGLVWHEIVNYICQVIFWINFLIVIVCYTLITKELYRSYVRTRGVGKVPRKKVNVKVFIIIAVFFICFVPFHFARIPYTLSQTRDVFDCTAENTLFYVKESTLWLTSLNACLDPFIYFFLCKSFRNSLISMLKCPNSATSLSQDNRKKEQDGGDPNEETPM

`CCCCS(=O)(=O)NC(=O)C1CCN(c2nc(C(F)F)c(C(=O)OCC)cc2C#N)CC1` [Example 41, Ethyl 6-(4-{[(butylsulfonyl)amino]carbonyl}piperidin-1-yl)-5-cyano-2-(difluoromethyl)nicotinate] showed a concentration for half-maximal inhibition (IC50) of 490 nM.
The same measure for `CCOC(=O)c1cc(C#N)c(N2CC(C(=O)NS(=O)(=O)CC3CCC(C)CC3)C2)nc1CF` (centres unmarked) [Example 74, Ethyl 5-cyano-2-(fluoromethyl)-6-{3-[({[(4-methylcyclohexyl)methyl]sulfonyl}amino)carbonyl]azetidin-1-yl}nicotinate]: 270 nM.

Source of the values: US20080039437A1, “New Pyridine Analogues III” (ASTRAZENECA AB, priority 2006, published 2008).
